The target in the assay is recombinant human SAE enzyme (Homo sapiens (Human), UniProt Q9UBT2). Put plainly: SAE HTRF enzyme assay. Type of assay: biochemical. The note with it: for inhibition at 0.111 µM: read-out: Percent Inhibition. In outline:
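HTRF read-out using Eu-cryptate anti-Flag and allophycocyanin anti-GST antibodies, added with EDTA stop buffer and read after 2 h at 24 °C. The preceding reaction ran 105 min at 24 °C: 0.11 nM recombinant SAE, 0.5 μM ATP, Sumo-Flag, Ubc9-GST, pH 7.5. Values given as single-concentration inhibition or IC50.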

[1] abbreviates: SAE inhibition at compound concentration 0.111 μM.
Setting [2] is: SAE inhibition, class symbols, legend in nM.

Like-named read-outs stand apart in the source and are kept apart here. Where only a bound is given, the exact number is not on record here.

The source of these data is patent US10780090B2, “Heteroaryl compounds useful as inhibitors of SUMO activating enzyme” (Millennium Pharmaceuticals, Inc., priority 2014, dated 2020).

Sequence of recombinant human SAE enzyme (Q9UBT2 whole entry): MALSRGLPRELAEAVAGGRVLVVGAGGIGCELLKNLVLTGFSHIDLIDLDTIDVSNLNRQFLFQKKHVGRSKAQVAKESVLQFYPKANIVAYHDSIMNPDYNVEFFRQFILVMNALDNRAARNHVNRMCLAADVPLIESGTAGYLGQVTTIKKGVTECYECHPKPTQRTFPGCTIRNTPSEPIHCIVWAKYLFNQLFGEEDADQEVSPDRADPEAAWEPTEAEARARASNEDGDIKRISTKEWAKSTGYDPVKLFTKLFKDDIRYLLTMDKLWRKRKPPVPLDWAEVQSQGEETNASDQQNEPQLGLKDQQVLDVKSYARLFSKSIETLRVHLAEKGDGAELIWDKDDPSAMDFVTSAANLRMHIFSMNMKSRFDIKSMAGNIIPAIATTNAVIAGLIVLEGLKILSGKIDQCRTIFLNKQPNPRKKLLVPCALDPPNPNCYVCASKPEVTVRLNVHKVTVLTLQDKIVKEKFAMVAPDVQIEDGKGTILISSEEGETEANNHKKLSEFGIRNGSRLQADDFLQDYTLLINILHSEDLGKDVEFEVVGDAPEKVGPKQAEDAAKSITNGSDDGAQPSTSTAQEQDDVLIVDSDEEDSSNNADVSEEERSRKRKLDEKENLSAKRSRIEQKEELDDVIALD
Sequence of recombinant human SAE enzyme (Q9UBE0 whole entry partner): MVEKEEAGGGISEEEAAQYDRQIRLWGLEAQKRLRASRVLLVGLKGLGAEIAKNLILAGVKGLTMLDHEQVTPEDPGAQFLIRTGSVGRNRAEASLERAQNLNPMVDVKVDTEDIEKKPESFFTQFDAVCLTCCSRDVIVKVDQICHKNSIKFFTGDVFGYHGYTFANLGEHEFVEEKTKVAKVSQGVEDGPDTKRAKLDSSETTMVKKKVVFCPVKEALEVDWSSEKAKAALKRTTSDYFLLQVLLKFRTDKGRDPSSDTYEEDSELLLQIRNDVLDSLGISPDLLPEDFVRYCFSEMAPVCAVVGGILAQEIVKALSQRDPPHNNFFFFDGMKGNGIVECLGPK

For `Cc1sc(C(=O)c2cncnc2N[C@@H]2C[C@H](COS(N)(=O)=O)[C@@H](O)C2)cc1Cc1cccc(Cl)c1` [I-51, {(1R,2S,4R)-4-[(5-{[4-(3-chlorobenzyl)-5-methyl-2-thienyl]carbonyl}pyrimidin-4-yl)amino]-2-hydroxycyclopentyl}methyl sulfamate], the inhibition at 0.111 µM (Concentration 0.111 μM) was found to be 100%. Also, where the note is “class symbols A/B/C”, the IC50 is less than 10 nM.

With `CN1CCC[C@]1(c1cccc(Cl)c1)c1csc(C(=O)c2cncnc2N[C@@H]2C[C@H](COS(N)(=O)=O)[C@@H](O)C2)c1` (mixture of isomers) [I-227, [(1R,2S,4R)-4-{[5-({4-[(2S)-2-(3-chlorophenyl)-1-methylpyrrolidin-2-yl]-2-thienyl}carbonyl)pyrimidin-4-yl]amino}-2-hydroxycyclopentyl]methyl sulfamate and [(1R,2S,4R)-4-{[5-({4-[(2R)-2-(3-chlorophenyl)-1-methylpyrrolidin-2-yl]-2-thienyl}carbonyl)pyrimidin-4-yl]amino}-2-hydroxycyclopentyl]methyl sulfamate], the “Percent Inhibition” value (Concentration 0.111 μM) was determined as 23. Further, the IC50 (class symbols A/B/C) is 100 to 1000 nM.

`Cc1nc2n(c1C)CCO[C@@H]2c1cc(C(=O)c2cncnc2N[C@@H]2C[C@H](COS(N)(=O)=O)[C@@H](O)C2)sc1C` (single isomer, unassigned) [I-356a, [(1R,2S,4R)-4-{[5-({4-[(8R)-2,3-dimethyl-5,6-dihydro-8H-imidazo[2,1-c][1,4]oxazin-8-yl]-5-methyl-2-thienyl}carbonyl)pyrimidin-4-yl]amino}-2-hydroxycyclopentyl]methyl sulfamate or [(1R,2S,4R)-4-{[5-({4-[(8S)-2,3-dimethyl-5,6-dihydro-8H-imidazo[2,1-c][1,4]oxazin-8-yl]-5-methyl-2-thienyl}carbonyl)pyrimidin-4-yl]amino}-2-hydroxycyclopentyl]methyl sulfamate]: the “Percent Inhibition” value under setting [1] turned out to be 52%. The IC50 under setting [2] is 10 to 100 nM.

Consider `Cc1sc(C(=O)c2cncnc2N[C@@H]2C[C@H](COS(N)(=O)=O)[C@@H](O)C2)cc1[C@H](O)c1cccc(Cl)c1` (single isomer, unassigned) [I-11a, [(1R,2S,4R)-4-{[5-({4-[(R)-(3-chlorophenyl)(hydroxy)methyl]-5-methyl-2-thienyl}carbonyl)pyrimidin-4-yl]amino}-2-hydroxycyclopentyl]methyl sulfamate or [(1R,2S,4R)-4-{[5-({4-[(S)-(3-chlorophenyl)(hydroxy)methyl]-5-methyl-2-thienyl}carbonyl)pyrimidin-4-yl]amino}-2-hydroxycyclopentyl]methyl sulfamate], for which the “Percent Inhibition” value (Concentration 0.111 μM) was 93. The IC50 (class symbols A/B/C) is less than 10 nM.

In the case of `N[C@@H](c1cccc(Br)n1)c1cc(C(=O)c2cncnc2N[C@@H]2C[C@H](COS(N)(=O)=O)[C@@H](O)C2)sc1Cl` (single isomer, unassigned) [I-18b, [(1R,2S,4R)-4-{[5-({4-[(R)-amino(6-bromopyridin-2-yl)methyl]-5-chloro-2-thienyl}carbonyl)pyrimidin-4-yl]amino}-2-hydroxycyclopentyl]methyl sulfamate or [(1R,2S,4R)-4-{[5-({4-[(S)-amino(6-bromopyridin-2-yl)methyl]-5-chloro-2-thienyl}carbonyl)pyrimidin-4-yl]amino}-2-hydroxycyclopentyl]methyl sulfamate], for the setting “Concentration 0.111 μM”, the “Percent Inhibition” value turned out to be 99. Moreover, where the note is “class symbols A/B/C”, the IC50 is less than 10 nM.

Turning to `Cc1sc(C(=O)c2cncnc2N[C@@H]2C[C@H](COS(N)(=O)=O)[C@@H](O)C2)cc1-c1nccc2ccc(Cl)cc12` [I-358, [(1R,2S,4R)-4-[[5-[4-(7-chloro-1-isoquinolyl)-5-methyl-thiophene-2-carbonyl]pyrimidin-4-yl]amino]-2-hydroxy-cyclopentyl]methyl sulfamate], the inhibition at 0.111 µM under setting [1] was 96%. In addition, the IC50 under setting [2] was less than 10 nM.

Turning to `NS(=O)(=O)OC[C@H]1C[C@@H](Nc2ncncc2C(=O)c2cc(Cc3cccc(Cl)c3)c(F)s2)C[C@@H]1O` [I-89, {(1R,2S,4R)-4-[(5-{[4-(3-chlorobenzyl)-5-fluoro-2-thienyl]carbonyl}pyrimidin-4-yl)amino]-2-hydroxycyclopentyl}methyl sulfamate], the inhibition at 0.111 µM (Concentration 0.111 μM) came to 98%. Also, the IC50 (class symbols A/B/C) is less than 10 nM.

Take `NS(=O)(=O)OC[C@H]1C[C@@H](Nc2ncncc2C(=O)c2cc(C3NCCc4ccc(Cl)cc43)c(Cl)s2)C[C@@H]1O` (single isomer, unassigned) [I-255a, [(1R,2S,4R)-4-{[5-({5-chloro-4-[(1R)-7-chloro-1,2,3,4-tetrahydroisoquinolin-1-yl]-2-thienyl}carbonyl)pyrimidin-4-yl]amino}-2-hydroxycyclopentyl]methyl sulfamate or [(1R,2S,4R)-4-{[5-({5-chloro-4-[(1S)-7-chloro-1,2,3,4-tetrahydroisoquinolin-1-yl]-2-thienyl}carbonyl)pyrimidin-4-yl]amino}-2-hydroxycyclopentyl]methyl sulfamate]: the “Percent Inhibition” value (Concentration 0.111 μM) is on record as 93. In addition, the IC50 (class symbols A/B/C) fell in the range of 10 to 100 nM.

On to `Cc1sc(C(=O)c2cncnc2N[C@@H]2C[C@H](COS(N)(=O)=O)[C@@H](O)C2)cc1Sc1cccc(Cl)c1` [I-143, [(1R,2S,4R)-4-{[5-({4-[(3-chlorophenyl)sulfanyl]-5-methyl-2-thienyl}carbonyl)pyrimidin-4-yl]amino}-2-hydroxycyclopentyl]methyl sulfamate], for which the inhibition at 0.111 µM (Concentration 0.111 μM) is 94%. The IC50 (class symbols A/B/C) is less than 10 nM.

In the case of `Cc1cccc(Cc2csc(C(=O)c3cncnc3N[C@@H]3C[C@H](COS(N)(=O)=O)[C@@H](O)C3)c2)c1` [I-60, {(1R,2S,4R)-2-hydroxy-4-[(5-{[4-(3-methylbenzyl)-2-thienyl]carbonyl}pyrimidin-4-yl)amino]cyclopentyl}methyl sulfamate], the inhibition at 0.111 µM (Concentration 0.111 μM) amounted to 99%.

Consider `NS(=O)(=O)OC[C@H]1C[C@@H](Nc2ncncc2C(=O)c2cc(CC3=CCSCC3)cs2)C[C@@H]1O` [I-173, {(1R,2S,4R)-4-[(5-{[4-(3,6-dihydro-2H-thiopyran-4-ylmethyl)-2-thienyl]carbonyl}pyrimidin-4-yl)amino]-2-hydroxycyclopentyl}methyl sulfamate], for which, where the note is “Concentration 0.111 μM”, the inhibition at 0.111 µM is 86%. The IC50 (class symbols A/B/C) was 10 to 100 nM.

For the compound `NS(=O)(=O)OC[C@H]1C[C@@H](Nc2ncncc2C(=O)c2ccc([C@@H]3OCCc4c(Cl)cccc43)s2)C[C@@H]1O` (mixture of isomers) [I-325, [(1R,2S,4R)-4-{[5-({5-[(1R)-5-chloro-3,4-dihydro-1H-isochromen-1-yl]-2-thienyl}carbonyl)pyrimidin-4-yl]amino}-2-hydroxycyclopentyl]methyl sulfamate and [(1R,2S,4R)-4-{[5-({5-[(1S)-5-chloro-3,4-dihydro-1H-isochromen-1-yl]-2-thienyl}carbonyl)pyrimidin-4-yl]amino}-2-hydroxycyclopentyl]methyl sulfamate], the “Percent Inhibition” value under setting [1] is 60%. Also, the IC50 under setting [2] was in the range of 10 to 100 nM.

Take `Cc1ccc2c(n1)C(c1cc(C(=O)c3cncnc3N[C@@H]3C[C@H](COS(N)(=O)=O)[C@@H](O)C3)sc1C)OCC2` (single isomer, unassigned) [I-291b, [(1R,2S,4R)-2-hydroxy-4-{[5-({5-methyl-4-[(8S)-2-methyl-5,8-dihydro-6H-pyrano[3,4-b]pyridin-8-yl]-2-thienyl}carbonyl)pyrimidin-4-yl]amino}cyclopentyl]methyl sulfamate or [(1R,2S,4R)-2-hydroxy-4-{[5-({5-methyl-4-[(8R)-2-methyl-5,8-dihydro-6H-pyrano[3,4-b]pyridin-8-yl]-2-thienyl}carbonyl)pyrimidin-4-yl]amino}cyclopentyl]methyl sulfamate]: the “Percent Inhibition” value under setting [1] stood at 99%. Further, under setting [2], the IC50 is less than 10 nM.

Consider `Cc1sc(C(=O)c2cncnc2N[C@@H]2C[C@H](COS(N)(=O)=O)[C@@H](O)C2)cc1[C@H](C)c1cccc(Cl)c1` (mixture of isomers) [I-135, [(1R,2S,4R)-4-{[5-({4-[(1R)-1-(3-chlorophenyl)ethyl]-5-methyl-2-thienyl}carbonyl)pyrimidin-4-yl]amino}-2-hydroxycyclopentyl]methyl sulfamate and [(1R,2S,4R)-4-{[5-({4-[(1S)-1-(3-chlorophenyl)ethyl]-5-methyl-2-thienyl}carbonyl)pyrimidin-4-yl]amino}-2-hydroxycyclopentyl]methyl sulfamate], for which the “Percent Inhibition” value (Concentration 0.111 μM) is on record as 94. Also, the IC50 (class symbols A/B/C) was in the range of 10 to 100 nM.

For the compound `Cc1sc(C(=O)c2cncnc2N[C@@H]2C[C@H](COS(N)(=O)=O)[C@@H](O)C2)cc1C1OCCc2ccc(C(F)(F)F)nc21` (single isomer, unassigned) [I-297a, [(1R,2S,4R)-2-hydroxy-4-{[5-({5-methyl-4-[(8S)-2-(trifluoromethyl)-5,8-dihydro-6H-pyrano[3,4-b]pyridin-8-yl]-2-thienyl}carbonyl)pyrimidin-4-yl]amino}cyclopentyl]methyl sulfamate or [(1R,2S,4R)-2-hydroxy-4-{[5-({5-methyl-4-[(8R)-2-(trifluoromethyl)-5,8-dihydro-6H-pyrano[3,4-b]pyridin-8-yl]-2-thienyl}carbonyl)pyrimidin-4-yl]amino}cyclopentyl]methyl sulfamate], the “Percent Inhibition” value under setting [1] is reported as 31%. For the same compound, the IC50 under setting [2] was 100 to 1000 nM.

On to `NS(=O)(=O)OC[C@H]1C[C@@H](Nc2ncncc2C(=O)c2cc(C(=O)c3cccc(Cl)c3)c(Cl)s2)C[C@@H]1O` [I-207, {(1R,2S,4R)-4-[(5-{[5-Chloro-4-(3-chlorobenzoyl)-2-thienyl]carbonyl}pyrimidin-4-yl)amino]-2-hydroxycyclopentyl}methyl sulfamate], for which the inhibition at 0.111 µM (Concentration 0.111 μM) was 51%. The IC50 (class symbols A/B/C) was in the range of 100 to 1000 nM.
